Experimental data: ChEMBL document CHEMBL1128516, “A check on rational drug design: crystal structure of a complex of human immunodeficiency virus type 1 protease with a novel gamma-turn mimetic inhibitor” (J Med Chem, 1995)
pKi: −log10 of the molar value.

Molecular target: Human immunodeficiency virus type 1 protease (Human immunodeficiency virus 1, UniProt Q72874)
Assay: Competitive inhibitory activity against HIV-1 protease

Structure (SMILES): COC(=O)C(NC(=O)C(NC(=O)[C@H](C)N1CCC(C(C)N(C)C(C)C(=O)O)=CC(Cc2ccccc2)C1=O)C(C)C)C(C)C (stereo partly specified)
- pKi: 3.83
